The results in this text go back to patent US12258299B2, “Permanent eco-fertilizer against fruit physiological disorders and pests” (S.A. Reverté Productos Minerales, priority 2019, dated 2025).

The nature of series [1]: Salt index of the fertilizer. The format is physicochemical.
The test system of the next series is Golden apple pulp. Put plainly: Foliar fertilization of the pulp of Golden apples. As to conditions: 30 kg/Ha, treatment last week of April. The format is in vivo. As to the method: A first experiment was carried out to measure the foliar fertilization of Golden apples. The treatment was carried out the last week of April using a 3% weight suspension of the fertilizer as claimed in water (30 kg/1000 l water/Ha).

Each structure is given as a SMILES string.

In the case of `[Ca+2].[Cl-].[Cl-]` [CaCl2, calcium chloride], the salt index in series [1] worked out at 87. Further, the Calcium with Golden apple pulp came out at 24 ppm.
